Experiments:
Mu-type opioid receptor [1] = biological target: T1, Mu-type opioid receptor (Rattus norvegicus, UniProt P33535); test: Binding affinity against Opioid receptor mu 1 from rat brain membranes using [3H]DAMGO
[2] = biological target: T2, Delta-type opioid receptor (Rattus norvegicus, UniProt P33533); test: Binding affinity against Opioid receptor delta 1 from rat brain membranes using [3H]DADLE
[3] = biological target: T3, Kappa-type opioid receptor (Cavia porcellus, UniProt P41144); test: Binding affinity against Opioid receptor kappa 1 from guinea pig brain membranes using [3H]U-69593
Mu-type opioid receptor [4] = biological target: T1, Mu-type opioid receptor; test: Affinity against opioid receptor mu 1 in rat brain membranes determined in a competitive binding assay using [3H]DAMGO as competitive ligand (Compound 62); assay type: cell membranes
[5] = biological target: T2, Delta-type opioid receptor; test: Affinity against opioid receptor delta 1 in rat brain membranes determined in a competitive binding assay using [3H]DADLE as competitive ligand (Compound 62); assay type: cell membranes
[6] = biological target: T3, Kappa-type opioid receptor; test: Affinity against opioid receptor kappa 1 in guinea pig brain membranes determined in a competitive binding assay using [3H]U-69593 as competitive ligand (Compound 62); assay type: cell membranes, Membrane

Row | SMILES | Ki (Mu-type opioid receptor [1]) [nM] | Ki [2] [nM] | Ki [3] [nM] | Ki (Mu-type opioid receptor [4]) [nM] | Ki [5] [nM] | Ki [6] [nM]
1 | CCCCOc1cccc2c1C13CCN(CC4CC4)C(C2)[C@]1(OCCCc1ccccc1)CCC(=O)C3 (stereo not given in full) | 14.8 | 234 | 151 |  |  | 
2 | C=C(C)CN1CCC23c4c5ccc(O)c4O[C@H]2C(=O)C2(CCc4ccccc42)C[C@@]3(O)C1C5 (stereo not given in full) | 2000 | 40.7 | 1000 |  |  | 
3 | CN1CCC23c4c5ccc(O)c4O[C@H]2c2ncc(-c4ccc(Br)cc4)cc2C[C@@]3(O)C1C5 (stereo not given in full) | 195 | 3.98 | 437 |  |  | 
4 | CN1CCC23c4c5ccc(O)c4O[C@H]2c2ncc(-c4ccc(Cl)cc4)cc2C[C@@]3(O)C1C5 (stereo not given in full) | 229 | 3.89 | 468 |  |  | 
5 | CCCCCCOc1cccc2c1C13CCN(CC4CC4)C(C2)[C@]1(OC)CCC(=O)C3 (stereo not given in full) | 44.7 | 1170 | 437 |  |  | 
6 | C=C(C)CN1CCC23c4c5ccc(O)c4O[C@H]2C(=O)/C(=C\c2ccccc2)C[C@@]3(O)C1C5 (stereo not given in full) | 4470 | 209 | 4470 |  |  | 
7 | C=C(N)NCCCC(=O)NC1CC2CC(c3cccc(O)c3)(C1)C(C)CN2CCCc1ccccc1 (stereo not given) | 87.1 | 1740 | 13.2 |  |  | 
8 | C=CCN1CCC23c4c5ccc(O)c4O[C@@]2(C)c2[nH]c4ccccc4c2C[C@@]3(OCC)C1C5 (stereo not given in full) | 661 | 10.7 | 759 |  |  | 
9 | CO[C@@]12CCC(=O)CC13CCN(CC1CC1)C2Cc1cccc(OC/C=C/c2ccccc2)c13 (stereo not given in full) | 28.2 | 832 | 363 |  |  | 
10 | CC1CN(CCCc2ccccc2)C2CC(N)CC1(c1cccc(O)c1)C2 (stereo not given) | 3.31 | 14.8 | 123 |  |  | 
11 | CC1CN(CCCc2ccccc2)C2CC(NC(=O)CCCN(C)C)CC1(c1cccc(O)c1)C2 (stereo not given) | 57.5 | 1450 | 12 |  |  | 
12 | CN1CCC23c4c5ccc(O)c4O[C@H]2c2ncc(-c4ccccc4)cc2C[C@H]3C1C5 (stereo not given in full) | 24 | 4.9 | 81.3 |  |  | 
13 | CN1CCC23c4c5ccc(O)c4O[C@H]2c2ncc(-c4ccc(Cl)c(Cl)c4)cc2C[C@H]3C1C5 (stereo not given in full) | 93.3 | 3.72 | 275 |  |  | 
14 | CN1CCC23c4c5ccc(O)c4O[C@H]2c2ncc(-c4ccc(Cl)cc4)cc2C[C@H]3C1C5 (stereo not given in full) | 148 | 4.37 | 77.6 |  |  | 
15 | C=C(C)CN1CCC23c4c5ccc(O)c4O[C@H]2c2[nH]ncc2C[C@@]3(O)C1C5 (stereo not given in full) | 141 | 39.8 | 38 |  |  | 
16 | C=C(C)CN1CCC23c4c5ccc(O)c4O[C@H]2c2oc4ccccc4c2C[C@@]3(O)C1C5 (stereo not given in full) | 1290 | 8.13 | 575 |  |  | 
17 | Oc1ccc2c3c1O[C@H]1c4nc(-c5ccccc5)ncc4C[C@@]4(O)C(C2)N(CC2CC2)CCC314 (stereo not given in full) | 21.9 | 15.8 | 11 |  |  | 

Row | SMILES | Ki (Mu-type opioid receptor [1]) [nM] | Ki [2] [nM] | Ki [3] [nM] | Ki (Mu-type opioid receptor [4]) [nM] | Ki [5] [nM] | Ki [6] [nM]
18 | CN1CCC23c4c5ccc(O)c4O[C@H]2c2ncc(-c4ccc(Cl)cc4Cl)cc2C[C@H]3C1C5 (stereo not given in full) | 97.7 | 1.1 | 407 |  |  | 
19 | Oc1ccc2c3c1O[C@H]1c4ncc(-c5ccc(Cl)cc5)cc4C[C@H]4C(C2)N(CC2CC2)CCC314 (stereo not given in full) | 61.7 | 2.57 | 6.03 |  |  | 
20 | C=CCN1CCC23c4c5ccc(O)c4O[C@H]2c2ncc(-c4ccc(Cl)cc4)cc2C[C@@]3(O)C1C5 (stereo not given in full) | 468 | 8.13 | 75.9 |  |  | 
21 | COc1cccc2c1C13CCN(CC4CC4)C(C2)[C@]1(OCCCc1ccccc1)CCC(=O)C3 (stereo not given in full) | 0.339 | 17 | 7.41 |  |  | 
22 | CO[C@@]12CCC(=O)CC13CCN(CC1CC1)C2Cc1cccc(OCCCc2ccccc2)c13 (stereo not given in full) | 43.7 | 1410 | 209 |  |  | 
23 | O=C1CC[C@@]2(OCCCc3ccccc3)C3Cc4cccc(O)c4C2(CCN3CC2CC2)C1 (stereo not given in full) | 0.398 | 5.01 | 5.89 |  |  | 
24 | Cc1nc(-c2ccccc2)c2c(n1)[C@@H]1Oc3c(O)ccc4c3C13CCN(CC1CC1)C(C4)[C@]3(O)C2 (stereo not given in full) | 251 | 324 | 562 |  |  | 
25 | O=C1CC[C@@]2(OCCCc3ccccc3)C3Cc4cccc5c4C2(CCN3CC2CC2)C1O5 (stereo not given in full) | 0.832 | 45.7 | 22.9 |  |  | 
26 | CO[C@@]12CCC(=O)CC13CCN(CC1CC1)C2Cc1cccc(OCc2ccccc2)c13 (stereo not given in full) | 11.5 | 214 | 56.2 |  |  | 
27 | CN1CCC23c4c5ccc(O)c4O[C@H]2c2ncc(-c4ccc(Br)cc4)cc2C[C@H]3C1C5 (stereo not given in full) | 200 | 5.01 | 91.2 |  |  | 
28 | C=C(N)NCCC(=O)NC1CC2CC(c3cccc(O)c3)(C1)C(C)CN2CCCc1ccccc1 (stereo not given) | 5.25 | 56.2 | 23.4 |  |  | 
29 | CN1CCC23c4c5ccc(O)c4O[C@H]2c2ncc(-c4ccccc4)cc2C[C@@]3(O)C1C5 (stereo not given in full) | 25.7 | 2.88 | 363 |  |  | 
30 | C=C(C)CN1CC[C@]23c4c5ccc(O)c4O[C@@H]2c2[nH]c4ccccc4c2C[C@@]3(O)[C@H]1C5 | 7940 | 4.68 | 3800 | 7940 | 4.68 | 3800
31 | CCN1CC[C@]23c4c5ccc(O)c4O[C@@H]2c2[nH]c4ccccc4c2C[C@@]3(O)[C@H]1C5 | 2510 | 5.01 | 3020 |  |  | 
32 | CCO[C@@]12Cc3c([nH]c4ccccc34)[C@]3(C)Oc4c(O)ccc5c4C31CCN(CC1CC1)[C@@H]2C5 | 38.9 | 0.794 | 58.9 |  |  | 
33 | CCCCOc1cccc2c1[C@]13CCN(CC4CC4)[C@H](C2)[C@]1(OC)CCC(=O)C3 | 13.8 | 759 | 263 |  |  | 
34 | COc1cccc2c1[C@]13CCN(CC4CC4)[C@H](C2)[C@]1(OC)CCC(=O)C3 [CYPRODIME] | 10.7 | 417 | 110 |  |  | 
